“Also recorded” adds a separate entry of the source. Ends that are not written are not given here.
What was measured:
[1] = test system: SARS-CoV-2 strain 2019 n-CoV/USA_WA1/2020; type: cell-based
SARS-CoV-2 RBD (RBD-Fc) = SARS-CoV-2 RBD (RBD-Fc) (Severe acute respiratory syndrome coronavirus 2, UniProt P0DTC2)
[2] = test system: SARS-CoV-2 S protein pseudotyped virus-like particles; type: cell-based
[3] = test system: B.1.1.529 (Omicron) S protein RBD; type: binding, SARS-CoV-2

p96 (TAYECFQFPEWSCESE; not fully specified; cysteine pairing not given here)
potency compared to 15033 parental (in words) [1]: no apparent improvement in potency; also recorded: decreased potency | binding of peptide-phage to RBD (in words) (SARS-CoV-2 RBD (RBD-Fc)): no measurable interaction

p102 (ECWEWSYQLQEWSPCP; not fully specified; cysteine pairing not given here)
improvement in 15033 neutralization efficiency (in words) [1]: second best | neutralization potency compared to parent IgG (in words) [2]: marked improvement in neutralization potency | binding to omicron RBD (in words) [3]: equivalent binding efficiency | EC50 of phage-displayed peptide (SARS-CoV-2 RBD (RBD-Fc)): 0.04 A268 nm absorbance units | binding of peptide-phage to RBD (in words) (SARS-CoV-2 RBD (RBD-Fc)): bound

p16 (DFDFAENWMEQLKVML; not fully specified)
improvement in 15033 neutralization efficiency (in words) [1]: most marked improvement | neutralization potency compared to parent IgG (in words) [2]: marked improvement in neutralization potency | binding of peptide-phage to RBD (in words) (SARS-CoV-2 RBD (RBD-Fc)): no measurable interaction

— US20240182549A1, “PEPTIDES AND ANTIBODY FUSIONS THAT BIND TO SARS-COV-2 AND METHODS OF USING SAME” (priority 2021, published 2024)
